Measurements as given in article PMC4522657, “Identification of a DYRK1A Inhibitor that Induces Degradation of the Target Kinase using Co-chaperone CDC37 fused with Luciferase nanoKAZ” (Scientific Reports, 2015).

Legend:
Experiment in all cases: Kinase panel, CaNDY 1 µM
Type in all cases: biochemical
Settings in all cases: CaNDY 1 µM relative to DMSO
WNK2 = target: T1, WNK2 (Homo sapiens, UniProt Q9Y3S1)
T1 construct: purchased Carna Biosciences
Method in brief: (§1)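 Full-length human recombinant kinases, expressed in baculovirus as N-terminal GST fusions and glutathione-purified, were run in an off-chip mobility shift assay. Reactions contained 1% DMSO and ran one hour at room temperature. Inhibition was taken from the product/(product + substrate) ratio against a compound-free control.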

PKD2 = target: T2, PKD2 (Homo sapiens, UniProt Q9BZL6)
T2 construct: purchased Carna Biosciences
T2 sequence (Q9BZL6 whole entry): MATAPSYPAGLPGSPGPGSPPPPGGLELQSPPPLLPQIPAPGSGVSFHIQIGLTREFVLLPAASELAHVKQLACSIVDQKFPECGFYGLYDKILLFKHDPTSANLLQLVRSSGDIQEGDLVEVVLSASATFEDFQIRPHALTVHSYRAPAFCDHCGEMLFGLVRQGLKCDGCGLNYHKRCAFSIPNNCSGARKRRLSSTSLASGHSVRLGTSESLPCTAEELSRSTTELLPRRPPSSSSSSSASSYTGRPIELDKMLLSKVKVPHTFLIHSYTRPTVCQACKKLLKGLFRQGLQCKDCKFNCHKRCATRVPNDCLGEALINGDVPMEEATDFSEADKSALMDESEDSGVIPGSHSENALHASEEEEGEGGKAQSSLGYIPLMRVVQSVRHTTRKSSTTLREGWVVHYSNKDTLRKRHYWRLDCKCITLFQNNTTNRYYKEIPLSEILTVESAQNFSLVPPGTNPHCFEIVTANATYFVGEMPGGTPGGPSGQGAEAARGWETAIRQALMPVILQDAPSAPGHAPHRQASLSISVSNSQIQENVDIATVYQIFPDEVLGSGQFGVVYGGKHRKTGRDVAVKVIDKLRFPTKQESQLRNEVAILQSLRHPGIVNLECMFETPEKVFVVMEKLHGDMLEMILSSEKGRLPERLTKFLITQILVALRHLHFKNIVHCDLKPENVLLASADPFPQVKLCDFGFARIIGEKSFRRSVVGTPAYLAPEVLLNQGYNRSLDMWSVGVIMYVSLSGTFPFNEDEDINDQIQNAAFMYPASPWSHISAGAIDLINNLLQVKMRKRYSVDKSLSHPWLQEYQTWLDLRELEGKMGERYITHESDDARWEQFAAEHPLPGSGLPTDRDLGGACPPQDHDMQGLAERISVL
Method in brief: as §1

DYRK3 = target: T3, DYRK3 (Homo sapiens, UniProt O43781)
T3 construct: purchased Carna Biosciences
Method in brief: as §1

DDR1 = target: T4, DDR1 (Homo sapiens, UniProt Q08345)
T4 construct: purchased Carna Biosciences
Method in brief: as §1

EPHA8 = target: T5, EPHA8 (Homo sapiens, UniProt P29322)
T5 construct: purchased Carna Biosciences
Method in brief: as §1

EPHA3 = target: T6, EPHA3 (Homo sapiens, UniProt P29320)
T6 construct: purchased Carna Biosciences
Method in brief: as §1

Erk5 = target: T7, Erk5 (Homo sapiens, UniProt Q13164)
T7 construct: purchased Carna Biosciences
Method in brief: as §1

MARK4 = target: T8, MARK4 (Homo sapiens, UniProt Q96L34)
T8 construct: purchased Carna Biosciences
Method in brief: as §1

NDR1 = target: T9, NDR1 (Homo sapiens, UniProt Q15208)
T9 construct: purchased Carna Biosciences
T9 sequence (Q15208 whole entry): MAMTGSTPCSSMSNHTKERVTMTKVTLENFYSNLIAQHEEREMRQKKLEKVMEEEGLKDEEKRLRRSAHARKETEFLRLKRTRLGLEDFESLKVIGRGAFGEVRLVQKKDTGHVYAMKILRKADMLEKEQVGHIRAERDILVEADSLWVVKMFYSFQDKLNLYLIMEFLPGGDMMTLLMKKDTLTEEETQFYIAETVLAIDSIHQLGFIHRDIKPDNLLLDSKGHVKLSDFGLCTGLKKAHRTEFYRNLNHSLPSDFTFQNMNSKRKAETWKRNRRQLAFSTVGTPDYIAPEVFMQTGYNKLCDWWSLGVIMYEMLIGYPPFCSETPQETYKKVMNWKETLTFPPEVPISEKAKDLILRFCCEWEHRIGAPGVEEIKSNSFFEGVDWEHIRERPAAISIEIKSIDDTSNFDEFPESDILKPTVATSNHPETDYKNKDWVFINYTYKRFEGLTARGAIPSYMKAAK
Method in brief: as §1

MUSK = target: T10, MUSK (Homo sapiens, UniProt O15146)
T10 construct: purchased Carna Biosciences
Method in brief: as §1

HIPK2 = target: T11, HIPK2 (Homo sapiens, UniProt Q9H2X6)
T11 construct: purchased Carna Biosciences
T11 sequence (Q9H2X6 whole entry): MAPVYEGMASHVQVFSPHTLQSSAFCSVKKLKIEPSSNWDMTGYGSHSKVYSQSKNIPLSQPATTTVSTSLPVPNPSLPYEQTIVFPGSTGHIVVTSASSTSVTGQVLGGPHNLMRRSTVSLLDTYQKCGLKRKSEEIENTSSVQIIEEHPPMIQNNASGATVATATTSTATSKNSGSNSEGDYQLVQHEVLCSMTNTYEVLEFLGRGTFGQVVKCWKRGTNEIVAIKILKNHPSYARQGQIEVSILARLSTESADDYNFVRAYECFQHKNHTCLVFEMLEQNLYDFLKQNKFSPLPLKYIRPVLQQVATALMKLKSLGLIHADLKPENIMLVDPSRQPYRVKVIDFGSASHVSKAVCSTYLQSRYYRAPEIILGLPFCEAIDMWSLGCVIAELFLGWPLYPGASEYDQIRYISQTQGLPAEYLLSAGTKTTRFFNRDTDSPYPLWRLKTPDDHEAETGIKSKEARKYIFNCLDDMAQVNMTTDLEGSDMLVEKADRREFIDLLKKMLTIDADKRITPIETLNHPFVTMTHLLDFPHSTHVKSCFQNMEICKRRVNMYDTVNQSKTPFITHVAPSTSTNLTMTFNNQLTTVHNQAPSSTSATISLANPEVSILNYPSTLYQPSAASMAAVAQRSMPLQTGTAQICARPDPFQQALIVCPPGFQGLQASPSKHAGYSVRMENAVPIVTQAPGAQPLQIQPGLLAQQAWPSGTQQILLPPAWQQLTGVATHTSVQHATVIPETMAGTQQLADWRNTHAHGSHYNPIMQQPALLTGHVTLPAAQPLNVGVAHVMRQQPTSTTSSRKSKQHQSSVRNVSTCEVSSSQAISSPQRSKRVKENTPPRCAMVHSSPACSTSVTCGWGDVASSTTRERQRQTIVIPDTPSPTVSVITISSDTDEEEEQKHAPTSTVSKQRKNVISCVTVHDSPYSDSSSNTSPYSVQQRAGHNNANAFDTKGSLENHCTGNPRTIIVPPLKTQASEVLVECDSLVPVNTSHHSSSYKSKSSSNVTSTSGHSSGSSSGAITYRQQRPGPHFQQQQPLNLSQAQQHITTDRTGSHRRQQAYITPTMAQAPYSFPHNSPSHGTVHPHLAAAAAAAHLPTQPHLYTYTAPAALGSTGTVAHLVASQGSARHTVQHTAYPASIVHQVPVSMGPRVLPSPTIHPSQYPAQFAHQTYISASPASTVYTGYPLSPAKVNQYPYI
Method in brief: as §1

CDK2/CycE1 = target: T12, CDK2/CycE1 (Homo sapiens, UniProt P24941)
T12 construct: purchased Carna Biosciences
Method in brief: as §1

MET = target: T13, MET (Homo sapiens, UniProt P08581)
T13 construct: purchased Carna Biosciences
T13 sequence (P08581 25-1390): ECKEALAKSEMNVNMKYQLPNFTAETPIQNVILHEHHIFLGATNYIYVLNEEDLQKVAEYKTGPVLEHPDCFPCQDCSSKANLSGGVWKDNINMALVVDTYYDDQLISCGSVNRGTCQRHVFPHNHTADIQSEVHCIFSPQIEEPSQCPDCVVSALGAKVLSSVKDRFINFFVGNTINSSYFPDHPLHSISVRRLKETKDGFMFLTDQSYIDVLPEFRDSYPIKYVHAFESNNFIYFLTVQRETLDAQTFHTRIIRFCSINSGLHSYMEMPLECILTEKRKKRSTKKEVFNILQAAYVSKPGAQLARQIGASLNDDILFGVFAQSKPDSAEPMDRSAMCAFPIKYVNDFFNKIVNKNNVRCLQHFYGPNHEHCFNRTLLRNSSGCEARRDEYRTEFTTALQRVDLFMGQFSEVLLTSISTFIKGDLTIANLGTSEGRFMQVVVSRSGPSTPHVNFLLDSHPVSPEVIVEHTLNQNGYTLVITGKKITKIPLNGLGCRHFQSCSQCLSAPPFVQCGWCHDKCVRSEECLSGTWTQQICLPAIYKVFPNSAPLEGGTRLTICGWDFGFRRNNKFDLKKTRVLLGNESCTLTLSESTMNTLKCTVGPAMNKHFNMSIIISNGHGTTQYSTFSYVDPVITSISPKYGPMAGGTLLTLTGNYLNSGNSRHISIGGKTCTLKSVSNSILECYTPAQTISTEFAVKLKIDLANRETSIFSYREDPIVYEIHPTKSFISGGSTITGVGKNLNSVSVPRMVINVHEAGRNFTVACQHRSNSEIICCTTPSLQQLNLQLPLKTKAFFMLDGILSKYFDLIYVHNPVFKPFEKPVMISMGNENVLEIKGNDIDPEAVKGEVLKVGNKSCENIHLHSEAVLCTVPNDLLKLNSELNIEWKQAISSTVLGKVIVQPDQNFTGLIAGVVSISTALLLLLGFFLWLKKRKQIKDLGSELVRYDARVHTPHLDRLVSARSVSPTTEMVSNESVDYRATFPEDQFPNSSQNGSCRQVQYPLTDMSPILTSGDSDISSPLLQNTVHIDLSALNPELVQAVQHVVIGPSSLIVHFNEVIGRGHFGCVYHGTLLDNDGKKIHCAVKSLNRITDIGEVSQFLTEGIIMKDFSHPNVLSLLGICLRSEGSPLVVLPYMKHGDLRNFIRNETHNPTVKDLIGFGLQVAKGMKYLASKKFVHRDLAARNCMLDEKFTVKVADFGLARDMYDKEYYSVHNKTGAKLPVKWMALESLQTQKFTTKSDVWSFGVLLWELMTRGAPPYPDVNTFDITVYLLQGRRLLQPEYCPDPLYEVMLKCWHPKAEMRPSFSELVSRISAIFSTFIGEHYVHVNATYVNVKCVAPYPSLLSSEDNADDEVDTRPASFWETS
Method in brief: as §1

BRAF(V600E)_Cascade = target: T14, BRAF(V600E)_Cascade (Homo sapiens, UniProt P15056, V600E)
T14 construct: purchased Carna Biosciences
Method in brief: as §1

SLK = target: T15, SLK (Homo sapiens, UniProt Q9H2G2)
T15 construct: purchased Carna Biosciences
Method in brief: as §1

MARK1 = target: T16, MARK1 (Homo sapiens, UniProt Q9P0L2)
T16 construct: purchased Carna Biosciences
Method in brief: as §1

NEK7 = target: T17, NEK7 (Homo sapiens, UniProt Q8TDX7)
T17 construct: purchased Carna Biosciences
Method in brief: as §1

FGFR1 = target: T18, FGFR1 (Homo sapiens, UniProt P11362)
T18 construct: purchased Carna Biosciences
Method in brief: as §1

MAPKAPK5 = target: T19, MAPKAPK5 (Homo sapiens, UniProt Q8IW41)
T19 construct: purchased Carna Biosciences
Method in brief: as §1

RON = target: T20, RON (Homo sapiens, UniProt Q04912)
T20 construct: purchased Carna Biosciences
Method in brief: as §1

FMS = target: T21, FMS (Homo sapiens, UniProt P07333)
T21 construct: purchased Carna Biosciences
Method in brief: as §1

MNK1 = target: T22, MNK1 (Homo sapiens, UniProt Q9BUB5)
T22 construct: purchased Carna Biosciences
Method in brief: as §1

PKACγ = target: T23, PKACγ (Homo sapiens, UniProt P22612)
T23 construct: purchased Carna Biosciences
Method in brief: as §1

PAK2 = target: T24, PAK2 (Homo sapiens, UniProt Q13177)
T24 construct: purchased Carna Biosciences
Method in brief: as §1

EPHB1 = target: T25, EPHB1 (Homo sapiens, UniProt P54762)
T25 construct: purchased Carna Biosciences
Method in brief: as §1

TXK = target: T26, TXK (Homo sapiens, UniProt P42681)
T26 construct: purchased Carna Biosciences
T26 sequence (P42681 whole entry): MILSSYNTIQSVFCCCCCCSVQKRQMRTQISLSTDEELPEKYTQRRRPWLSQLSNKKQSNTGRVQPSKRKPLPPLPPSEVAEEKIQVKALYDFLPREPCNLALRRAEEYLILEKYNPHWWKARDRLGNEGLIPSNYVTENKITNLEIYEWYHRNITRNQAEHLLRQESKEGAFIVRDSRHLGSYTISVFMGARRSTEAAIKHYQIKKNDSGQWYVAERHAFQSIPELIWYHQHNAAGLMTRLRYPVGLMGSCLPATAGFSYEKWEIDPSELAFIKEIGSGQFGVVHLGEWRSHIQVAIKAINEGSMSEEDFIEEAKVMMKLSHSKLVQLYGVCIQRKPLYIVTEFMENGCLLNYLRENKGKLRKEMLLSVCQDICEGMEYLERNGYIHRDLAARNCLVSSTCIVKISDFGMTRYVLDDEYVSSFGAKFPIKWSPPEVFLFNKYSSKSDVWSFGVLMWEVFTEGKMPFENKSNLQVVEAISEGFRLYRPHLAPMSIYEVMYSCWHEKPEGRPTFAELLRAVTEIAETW
Method in brief: as §1

EEF2K = target: T27, EEF2K (Homo sapiens, UniProt O00418)
T27 construct: purchased Carna Biosciences
Method in brief: as §1

PKCε = target: T28, PKCε (Homo sapiens, UniProt Q02156)
T28 construct: purchased Carna Biosciences
Method in brief: as §1

COT_Cascade = target: T29, COT_Cascade (Homo sapiens, UniProt P41279)
T29 construct: purchased Carna Biosciences
T29 sequence (P41279 whole entry): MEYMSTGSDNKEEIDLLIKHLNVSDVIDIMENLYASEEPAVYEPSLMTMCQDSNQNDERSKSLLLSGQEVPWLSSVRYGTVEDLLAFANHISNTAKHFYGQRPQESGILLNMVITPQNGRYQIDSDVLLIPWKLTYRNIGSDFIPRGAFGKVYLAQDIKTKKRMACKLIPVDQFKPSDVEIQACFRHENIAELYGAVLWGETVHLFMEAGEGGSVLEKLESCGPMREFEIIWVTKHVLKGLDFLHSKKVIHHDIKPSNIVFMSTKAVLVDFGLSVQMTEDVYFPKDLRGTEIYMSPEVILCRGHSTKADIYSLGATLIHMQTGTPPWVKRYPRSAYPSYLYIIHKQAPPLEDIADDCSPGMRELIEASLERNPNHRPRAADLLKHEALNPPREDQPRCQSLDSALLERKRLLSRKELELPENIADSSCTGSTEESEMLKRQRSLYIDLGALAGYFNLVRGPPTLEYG
Method in brief: as §1

ALK(F1174L) = target: T30, ALK(F1174L) (Homo sapiens, UniProt Q9UM73, F1174L)
T30 construct: purchased Carna Biosciences
Method in brief: as §1

CDC7/ASK = target: T31, CDC7/ASK (Homo sapiens, UniProt O00311)
T31 construct: purchased Carna Biosciences
Method in brief: as §1

JAK3 = target: T32, JAK3 (Homo sapiens, UniProt P52333)
T32 construct: purchased Carna Biosciences
Method in brief: as §1

PDGFRα = target: T33, PDGFRα (Homo sapiens, UniProt P16234)
T33 construct: purchased Carna Biosciences
Method in brief: as §1

BRK = target: T34, BRK (Homo sapiens, UniProt Q13882)
T34 construct: purchased Carna Biosciences
Method in brief: as §1

TSSK3 = target: T35, TSSK3 (Homo sapiens, UniProt Q96PN8)
T35 construct: purchased Carna Biosciences
Method in brief: as §1

EPHA7 = target: T36, EPHA7 (Homo sapiens, UniProt Q15375)
T36 construct: purchased Carna Biosciences
Method in brief: as §1

[H]/N=C1/NC(=O)C(=Cc2ccc3c(c2)CCO3)S1 [CaNDY, (Z)-5-[(2,3-dihydrobenzofuran-5-yl)methylene]-2-iminothiazolidin-4-one]
remaining activity at 1 µM (WNK2): 101% | remaining activity at 1 µM (PKD2): 83.3% | remaining activity at 1 µM (DYRK3): 11% | remaining activity at 1 µM (DDR1): 99.3% | remaining activity at 1 µM (EPHA8): 101% | remaining activity at 1 µM (EPHA3): 96.3% | remaining activity at 1 µM (Erk5): 104% | %Activity (MARK4): 94.3% | remaining activity at 1 µM (NDR1): 91.8% | remaining activity at 1 µM (MUSK): 98.4% | remaining activity at 1 µM (HIPK2): 22.6% | %Activity (CDK2/CycE1): 87.5% | %Activity (MET): 97.7% | remaining activity at 1 µM (BRAF(V600E)_Cascade): 105% | remaining activity at 1 µM (SLK): 96.9% | remaining activity at 1 µM (MARK1): 94.4% | remaining activity at 1 µM (NEK7): 102% | remaining activity at 1 µM (FGFR1): 105% | remaining activity at 1 µM (MAPKAPK5): 95.5% | remaining activity at 1 µM (RON): 98.6% | remaining activity at 1 µM (FMS): 101% | remaining activity at 1 µM (MNK1): 94.6% | remaining activity at 1 µM (PKACγ): 78.2% | remaining activity at 1 µM (PAK2): 101% | remaining activity at 1 µM (EPHB1): 95.3% | remaining activity at 1 µM (TXK): 96.8% | remaining activity at 1 µM (EEF2K): 97.2% | remaining activity at 1 µM (PKCε): 91.9% | remaining activity at 1 µM (COT_Cascade): 72.9% | remaining activity at 1 µM (ALK(F1174L)): 97.9% | remaining activity at 1 µM (CDC7/ASK): 68% | remaining activity at 1 µM (JAK3): 94.2% | remaining activity at 1 µM (PDGFRα): 84.1% | remaining activity at 1 µM (BRK): 95.4% | remaining activity at 1 µM (TSSK3): 110% | remaining activity at 1 µM (EPHA7): 97.6%
